Converted amounts (≈) assume the structure as drawn. Read-outs that look alike come from different tables or passages of the source.
Key:
[1] = system: S. marcescens IAM 1184; assay: agar plate dilution method, MIC against S. marcescens IAM 1184; type: cell-based; conditions: Serratia marcescens, IAM1184, 16 h, read-out: Minimum Inhibitory Concentration (MIC)
Procedure: (§1) The in vitro antibacterial activities of the compounds of the present invention against various microorganisms, were measured by the following agar plate dilution method. One platinum loopfull of each test microorganism incubated overnight in Mueller Hinton broth, was inoculated to Mueller Hinton agar (inoculum size: 10^6 CFU/ml) Such culture media containing various antibiotics in various concentrations were prepared After incubation at 37° C. for 16 hours, the minimum inhibitory concentrations (MIC: μg/ml) were measured. As comparative compounds, cefotaxime, oeftazidime and the compounds disclosed in Example 2 of Japanese Unexamined Patent Publication No. 215690/1985 e.g. sodium 7-[2-(2-aminothiazol-4-yl)-2-ethoxyiminoacetamido]-3-(1-carboxylatemethylpyridinio-4-yl)thiomethyl-3-cephem-4-carboxylate (hereinafter referred to simply as "Reference Example A") were employed.

[2] = system: E. coli CSH(RE45); assay: agar plate dilution method, MIC against E. coli CSH(RE45); type: cell-based; conditions: Escherichia coli, 16 h, read-out: Minimum Inhibitory Concentration (MIC)
Procedure: as §1

[3] = system: K. pneumoniae PCI-602; assay: agar plate dilution method, MIC against K. pneumoniae PCI-602; type: cell-based; conditions: Klebsiella pneumoniae, read-out: Minimum Inhibitory Concentration (MIC)
Procedure: as §1

[4] = system: A. calcoaceticus No. 4; assay: agar plate dilution method, MIC against A. calcoaceticus No. 4; type: cell-based; conditions: Acinetobacter calcoaceticus; A. calcoaceticus No. 4; 10^6 CFU/ml, 37° C., 16 hours; read-out: Minimum Inhibitory Concentration (MIC)
Procedure: as §1

[5] = system: S. aureus JS1; assay: agar plate dilution method, MIC against S. aureus JS1; type: cell-based; conditions: Staphylococcus aureus; S. aureus JS1 (methicilline resistant; lactamase-producing strain); 10^6 CFU/ml, 37° C., 16 hours; read-out: Minimum Inhibitory Concentration (MIC)
Procedure: as §1

[6] = system: S. aureus 209P NIHJ-JC1; assay: agar plate dilution method, MIC against S. aureus 209P NIHJ-JC1; type: cell-based; conditions: Staphylococcus aureus, read-out: Minimum Inhibitory Concentration (MIC)
Procedure: as §1

[7] = system: Ps. aeruginosa IFO3445; assay: agar plate dilution method, MIC against Ps. aeruginosa IFO3445; type: cell-based; conditions: Pseudomonas aeruginosa, read-out: Minimum Inhibitory Concentration (MIC)
Procedure: as §1

[8] = system: S. marcescens No. 16-2; assay: agar plate dilution method, MIC against S. marcescens No. 16-2; type: cell-based; conditions: Serratia marcescens, NO.162, 16 h, read-out: Minimum Inhibitory Concentration (MIC)
Procedure: as §1

[9] = system: E. cloacae 963; assay: agar plate dilution method, MIC against E. cloacae 963; type: cell-based; conditions: read-out: Minimum Inhibitory Concentration (MIC)
Procedure: as §1

[10] = system: M. luteus ATCC9341; assay: agar plate dilution method, MIC against M. luteus ATCC9341; type: cell-based; conditions: Micrococcus luteus, ATCC9341, 16 h, read-out: Minimum Inhibitory Concentration (MIC)
Procedure: as §1

[11] = system: E. coli NIHJ JC2; assay: agar plate dilution method, MIC against E. coli NIHJ JC2; type: cell-based; conditions: Escherichia coli, read-out: Minimum Inhibitory Concentration (MIC)
Procedure: as §1

[12] = system: C. freundii GN346; assay: agar plate dilution method, MIC against C. freundii GN346; type: cell-based; conditions: Citrobacter freundii; C. freundii GN346 (lactamase-producing strain); 10^6 CFU/ml, 37° C., 16 hours; read-out: Minimum Inhibitory Concentration (MIC)
Procedure: as §1

[13] = system: K. pneumoniae No. 42; assay: agar plate dilution method, MIC against K. pneumoniae No. 42; type: cell-based; conditions: Klebsiella pneumoniae; K. pneumoniae No. 42 (lactamase-producing strain); 10^6 CFU/ml, 37° C., 16 hours; read-out: Minimum Inhibitory Concentration (MIC)
Procedure: as §1

[14] = system: P. vulgaris HX-19; assay: agar plate dilution method, MIC against P. vulgaris HX-19; type: cell-based; conditions: Proteus vulgaris, HX19, 16 h, read-out: Minimum Inhibitory Concentration (MIC)
Procedure: as §1

[15] = system: E. coli GN5482; assay: agar plate dilution method, MIC against E. coli GN5482; type: cell-based; conditions: Escherichia coli; E. coli GN5482 (lactamase-producing strain); 10^6 CFU/ml, 37° C., 16 hours; read-out: Minimum Inhibitory Concentration (MIC)
Procedure: as §1

[16] = system: Ps. cepacia 23; assay: agar plate dilution method, MIC against Ps. cepacia 23; type: cell-based, Pseudomonas cepacia; conditions: Burkholderia cepacia, 23, 16 h, read-out: Minimum Inhibitory Concentration (MIC)
Procedure: as §1

[17] = system: Ps. aeruginosa AKR17; assay: agar plate dilution method, MIC against Ps. aeruginosa AKR17; type: cell-based; conditions: Pseudomonas aeruginosa; Ps. aeruginosa AKR17; 10^6 CFU/ml, 37° C., 16 hours; read-out: Minimum Inhibitory Concentration (MIC)
Procedure: as §1

[18] = system: S. aureus BB5703; assay: agar plate dilution method, MIC against S. aureus BB5703; type: cell-based; conditions: Staphylococcus aureus, read-out: Minimum Inhibitory Concentration (MIC)
Procedure: as §1

[19] = system: E. cloacae Nek 39; assay: agar plate dilution method, MIC against E. cloacae Nek 39; type: cell-based; conditions: Enterobacter cloacae, NEK39; E. cloacae Nek 39 (lactamase-producing strain); 10^6 CFU/ml, 37° C., 16 hours; read-out: Minimum Inhibitory Concentration (MIC)
Procedure: as §1

[20] = system: P. vulgaris No. 33; assay: agar plate dilution method, MIC against P. vulgaris No. 33; type: cell-based; conditions: Proteus vulgaris, read-out: Minimum Inhibitory Concentration (MIC)
Procedure: as §1

[21] = system: M. morganii GN5407; assay: agar plate dilution method, MIC against M. morganii GN5407; type: cell-based; conditions: Morganella morganii; M. morganii GN5407 (lactamase-producing strain); 10^6 CFU/ml, 37° C., 16 hours; read-out: Minimum Inhibitory Concentration (MIC)
Procedure: as §1

[22] = system: C. freundii GN346/16; assay: agar plate dilution method, MIC against C. freundii GN346/16; type: cell-based; conditions: Citrobacter freundii; C. freundii GN346/16; 10^6 CFU/ml, 37° C., 16 hours; read-out: Minimum Inhibitory Concentration (MIC)
Procedure: as §1

[23] = system: S. epidermidis IAM12012; assay: agar plate dilution method, MIC against S. epidermidis IAM12012; type: cell-based; conditions: Staphylococcus epidermidis, read-out: Minimum Inhibitory Concentration (MIC)
Procedure: as §1

[24] = system: Ps. maltophilia GN 12873; assay: agar plate dilution method, MIC against Ps. maltophilia GN 12873; type: cell-based, Pseudomonas maltophilia; conditions: Stenotrophomonas maltophilia, GN12873; Ps. maltophilia GN 12873 (lactamase-producing strain); 10^6 CFU/ml, 37° C., 16 hours; read-out: Minimum Inhibitory Concentration (MIC)
Procedure: as §1

[25] = system: Ps. aeruginosa AK 109; assay: agar plate dilution method, MIC against Ps. aeruginosa AK 109; type: cell-based; conditions: Pseudomonas aeruginosa, read-out: Minimum Inhibitory Concentration (MIC)
Procedure: as §1

[26] = system: E. coli CSH2 (RK1); assay: agar plate dilution method, MIC against E. coli CSH2 (RK1); type: cell-based; conditions: Escherichia coli, 16 h, read-out: Minimum Inhibitory Concentration (MIC)
Procedure: as §1

[27] = system: K. oxytoca GN10650; assay: agar plate dilution method, MIC against K. oxytoca GN10650; type: cell-based; conditions: Klebsiella oxytoca; K. oxytoca GN10650 (lactamase-producing strain); 10^6 CFU/ml, 37° C., 16 hours; read-out: Minimum Inhibitory Concentration (MIC)
Procedure: as §1

| Compound | MIC [1] [µg/mL] | MIC [2] [µg/mL] | MIC [4] [µg/mL] | MIC [5] [µg/mL] | MIC [8] [µg/mL] | MIC [10] [µg/mL] | MIC [12] [µg/mL] | MIC [13] [µg/mL] | MIC [14] [µg/mL] | MIC [15] [µg/mL] | MIC [16] [µg/mL] | MIC [17] [µg/mL] | MIC [19] [µg/mL] | MIC [21] [µg/mL] | MIC [22] [µg/mL] | MIC [24] [µg/mL] | MIC [26] [µg/mL] | MIC [27] [µg/mL] | also measured |
| --- | --- | --- | --- | --- | --- | --- | --- | --- | --- | --- | --- | --- | --- | --- | --- | --- | --- | --- | --- |
| C=C(O/N=C(\C(=O)NC1C(=O)N2C(C(=O)[O-])=C(CSc3cc[n+](CC(=O)O)cc3)CSC12)c1csc(N)n1)C(=O)O (stereo not drawn) [Example 1, 7-[2-(2-aminothiazol-4-yl)-2-(1-carboxy-1-vinyloxyimino)acetamido]-3-(1-carboxymethylpyridinio-4-yl)thiomethyl-4-carboxylate (syn-isomer)] | < 0.006 | 0.1 (≈ 0.161 µM) | 50 (≈ 80.6 µM) | 50 (≈ 80.6 µM) | 1.56 (≈ 2.51 µM) | 1.56 (≈ 2.51 µM) | 25 (≈ 40.3 µM) | 0.2 (≈ 0.322 µM) | < 0.006 | 0.2 (≈ 0.322 µM) | 1.56 (≈ 2.51 µM) | > 100 | 0.78 (≈ 1.26 µM) | 0.0125 (≈ 0.0201 µM) | 0.1 (≈ 0.161 µM) | > 100 | 0.05 (≈ 0.0806 µM) | 0.2 (≈ 0.322 µM) | MIC ([3]; PCI602, 16 h): < 0.006 µg/mL; MIC ([6]; 16 h): 3.12 µg/mL (≈ 5.03 µM); MIC ([7]; IFO3445, 16 h): 1.56 µg/mL (≈ 2.51 µM); MIC ([9]; Enterobacter cloacae, E. cloacae 963, 10^6 CFU/ml, 37° C., 16 hours): 0.1 µg/mL (≈ 0.161 µM); MIC ([11]; NIHJJC2, E. coli NIHJ JC2, 10^6 CFU/ml, 37° C., 16 hours): 0.1 µg/mL (≈ 0.161 µM); MIC ([18]; S. aureus BB5703, 10^6 CFU/ml, 37° C., 16 hours): 25 µg/mL (≈ 40.3 µM); MIC ([20]; NO.33, 16 h): 0.0125 µg/mL (≈ 0.0201 µM); MIC ([23]; IAM12012, 16 h): 1.56 µg/mL (≈ 2.51 µM); MIC ([25]; AK109, 16 h): 3.12 µg/mL (≈ 5.03 µM) |
| Nc1nc(/C(=N/OCc2ccccc2)C(=O)NC2C(=O)N3C(C(=O)[O-])=C(CSc4cc[n+](CC(=O)O)cc4)CSC23)cs1 (stereo not drawn) [Example 2, monosodium 7-[2-(2-aminithiazol-4-yl)-2-benzyloxyiminoacetamide]-3-(1-caboxylatemethylpyridinio-4-yl)thiomethyl-3-cephem-4-carboxylate (syn-isomer)] | 1.56 | 0.2 | 25 | 50 | 12.5 | 0.025 | 25 | 1.56 | < 0.006 | 0.78 | 12.5 | > 100 | 6.25 | 1.56 | 0.78 | > 100 | 0.2 | 12.5 | MIC ([3]; PCI602, K. pneumoniae PCI-602, 10^6 CFU/ml, 37° C., 16 hours): 0.0125 µg/mL; MIC ([6]; S. aureus 209P NIHJ-JC1, 10^6 CFU/ml, Mueller Hinton agar, 37° C., 16 hours): 0.39 µg/mL; MIC ([7]; Ps. aeruginosa IFO3445, 10^6 CFU/ml, 37° C., 16 hours): 25 µg/mL; MIC ([9]; Enterobacter cloacae, 963, 16 h): 1.56 µg/mL; MIC ([11]; NIHJJC2, 16 h): 1.56 µg/mL; MIC ([18]; BB5703, 16 h): 1.56 µg/mL; MIC ([20]; P. vulgaris No. 33 (lactamase-producing strain), 10^6 CFU/ml, 37° C., 16 hours): 1.56 µg/mL; MIC ([23]; S. epidermidis IAM12012, 10^6 CFU/ml, 37° C., 16 hours): 0.2 µg/mL; MIC ([25]; AK109, Ps. aeruginosa AK 109, 10^6 CFU/ml, 37° C., 16 hours): 25 µg/mL |

Reference: US4988687A, “Cephalosporin derivatives, and antibacterial agents” (priority 1986, dated 1991)
